In patent US20250154131A1 (HAINAN SIMCERE PHARMACEUTICAL CO., LTD., priority 2021, published 2025):

Biological target: SARS-COV-2 3CL Protease (Severe acute respiratory syndrome coronavirus 2 (2019-nCoV) (SARS-CoV-2), UniProt P0DTD1)
Test: biochemical
Type: biochemical
Settings: recombinant MBP-tagged 3CL protease, 30 min preincubation

| SMILES | IC50 (class symbol column) [nM] | IC50 (numeric column) [nM] |
| --- | --- | --- |
| CC1(C)[C@@H]2[C@@H](C(=O)N[C@H](C#N)C[C@@H]3CCNC3=O)N(C(=O)C(NC(=O)C(F)(F)F)C3CC4(CCC4)C3)C[C@@H]21 (stereo partly drawn) [Compound 3, (1R,2S,5S)—N—((S)-1-cyano-2-((S)-2-carbonylpyrrolidin-3-yl)ethyl)-6,6-dimethyl-3-(2-(spiro[3.3]heptan-2-yl)-2-(2,2,2-trifluoroacetamido)acetyl)-3-azabicyclo[3.1.0]hexane-2-carboxamide] | 100 to 1000 | 525 |
| CC1(C)[C@@H]2[C@@H](C(=O)N[C@H](C#N)C[C@@H]3CCNC3=O)N(C(=O)[C@H](Cc3ccc4ccccc4c3)NC(=O)C(F)(F)F)C[C@@H]21 [Compound 4, (1R,2S,5S)—N—((S)-1-Cyano-2-((S)-2-carbonylpyrrolidin-3-yl)ethyl)-6,6-dimethyl-3-((S)-3-(naphthalen-2-yl)-2-(2,2,2-trifluoroacetamido)propanoyl)-3-azabicyclo[3.1.0]hexane-2-carboxamide] | 100 to 1000 | 273 |
| CC1(C)[C@@H]2[C@@H](C(=O)N[C@H](C#N)CC3C(=O)Nc4ccccc43)N(C(=O)[C@@H](NC(=O)C(F)(F)F)C34CC5CC(CC(O)(C5)C3)C4)C[C@@H]21 (stereo partly drawn) [Compound 5, (1R,2S,5S)—N-((1S)-1-Cyano-2-(2-carbonylindolin-3-yl)ethyl)-3-((S)-2-((1r,3R,5R,7S)-3-hydroxyadamantan-1-yl)-2-(2,2,2-trifluoroacetamido)acetyl)-6,6-dimethyl-3-azabicyclo[3.1.0]hexane-2-carboxamide] | < 100 | 69.8 |
| CN(C)C1CCC(C(NC(=O)C(F)(F)F)C(=O)N2C[C@H]3[C@@H]([C@H]2C(=O)N[C@H](C#N)C[C@@H]2CCNC2=O)C3(C)C)CC1 (stereo partly drawn) [Compound 6, (1R,2S,5S)—N—((S)-1-cyano-2-((S)-2-oxopyrrolidin-3-yl)ethyl)-3-(2-(4-(dimethylamino)cyclohexane)-2-(2,2,2-trifluoroacetamido)acetyl)-6,6-dimethyl-3-azabicyclo[3.1.0]cyclohexane-2-carboxamide] | 100 to 1000 | 449 |
| CN(C)CCCC[C@H](NC(=O)C(F)(F)F)C(=O)N1C[C@H]2[C@@H]([C@H]1C(=O)N[C@H](C#N)C[C@@H]1CCNC1=O)C2(C)C [Compound 7, (1R,2S,5S)—N—((S)-1-cyano-2-((S)-2-oxopyrrolidin-3-yl)ethyl)-3-(N^6,N^6-dimethyl-N^2-(2,2,2-trifluoroacetyl)-L-lysyl)-6,6-dimethyl-3-azabicyclo[3.1.0]cyclohexane-2-carboxamide] | 1000 to 10000 | 1110 |
| CC(C)(C)[C@H](NC(=O)C(F)(F)F)C(=O)N1C[C@H]2[C@@H]([C@H]1C(=O)N[C@H](C#N)CC1C(=O)Nc3ncccc31)C2(C)C (stereo partly shown) [Compound 8] | < 100 | 33.4 |
| CC(C)(C)[C@H](NC(=O)C(F)(F)Cl)C(=O)N1C[C@H]2[C@@H]([C@H]1C(=O)N[C@H](C#N)CC1C(=O)Nc3ccccc31)C2(C)C (stereo partly drawn) [Compound 9, (1R,2S,5S)-3-((S)-2-(2-Chloro-2,2-difluoroacetamido)-3,3-dimethylbutanoyl)-N-((1S)-1-cyano-2-(2-oxoindol-3-yl)ethyl)-6,6-dimethyl-3-azabicyclo[3.1.0]hexane-2-carboxamide] | < 100 | 25.2 |
| CC1(C)[C@@H]2[C@@H](C(=O)N[C@H](C#N)C[C@@H]3CCNC3=O)N(C(=O)[C@@H](NC(=O)C(F)(F)F)C34C[C@@H]5C[C@@H](CC(O)(C5)C3)C4)C[C@@H]21 [Compound 10, (1R,2S,5S)—N—((S)-1-Cyano-2-((S)-2-oxopyrrolidin-3-yl)ethyl)-3-((S)-2-((1R,3R,5R,7S)-3-hydroxyadamantan-1-yl)-2-(2,2,2-trifluoroacetamido)acetyl)-6,6-dimethyl-3-azabicyclo[3.1.0]hexane-2-carboxamide] | < 100 | 69.8 |
